Experiments:
[1] = test system: LS180 cells; assay: Confirmation of cell death (apoptosis) by fragmentation of DNA; type: cell-based, human; details: LS180, 50 nM, FIG. 10B
Description: Regarding the treatment of cells, the LS180 cells were cultured at a cell density of 1.0×10^5 cells/30 mm dish in a culture media of MEM (gibco)+10% FBS (gibco)+100 units/ml Penicillin+100 μg/ml Streptmycin (gibco). Thereafter, the cultured cells were treated with 50 nM KR12 or KR13 (dissolved in 0.125% DMSO) for 72 hours, and also, as a long-term experiment, the cells were treated with KR 12 or KR13 for […]. Thereafter, the cells of different groups were treated with a control MEM medium containing 10% FBS and 0.125% DMSO for 11 days. At the same time, as a control group, the LS180 cells were treated with 10% FBS and 0.125% DMSO for 14 days. Thereafter, the cells of the different groups were treated with trypsin, and were then recovered. The recovered cells were stirred in 50 μl of a PBS solution, and 3 μl of 1.5% Triton X (in water) and 3 μl of an RNase (1 mg/ml in water) were then added to the reaction solution. The mixed solution was treated at 37° C. for 30 minutes. Subsequently, 3 μl of proteinase K (1 mg/ml) was added to the reaction solution, and the obtained mixture was then treated at 37° C. for 30 minutes. Subsequently, 12 μl of 6× loading buffer was further added to the reaction solution, and the obtained mixture was treated at 65° C. for 10 minutes. Immediately after the treatment, 20 μl of the reaction solution was electrophoresed on 2% agarose gel in TBE at 100 V, and the gel was then stained with ethidium.

[2] = test system: LS180 cells; assay: Analysis of change in cell cycle (propidium iodide, flow cytometry); type: cell-based, human; details: LS180, 50 nM, FIG. 10A; for change in cell cycle: 72 hours; for change in cell cycle, Sub G1 stage (cell death): long-term treatment (14 days)
Description: In order to observe a cell cycle, treated cells and untreated cells were each washed with DNase-free PBS twice, and were then immobilized with 70% ethanol (frozen). The immobilized cells were treated with PBS containing 10 µg/mL RNaseA and 50 µg/mL propidium iodide, while they were left in a dark place at room temperature for 30 minutes. Using an FL-2H filter of FACS Calibur flowcytometer (Becton Dickinson, USA), fluorescence intensity was measured. The rate of cell cycle was determined by analyzing the obtained data using Cell Quest software (Becton Dickinson, USA). Regarding the treatment of cells, LS180 was treated with 50 nM KR12 or KR13 (dissolved in 0.125% DMSO) for 72 hours, and as a long-term treatment experiment, a culture experiment was carried out for 14 days. As a control, the cells were cultured in an MEM medium containing 10% FBS and 0.125% DMSO for 14 days.

[3] = test system: γH2AX, p53, PARP in LS180 cells; assay: Western analysis of markers of DNA damage and cell death (apoptosis); type: cell-based, human; details: LS180, 50 nM, 14 days, FIG. 10C
Description: LS180 cells, which had been subjected to a long-term treatment experiment and had been treated with 50 nM KR12 or KR13 (dissolved in 0.125% DMSO) for 14 days, were dissolved in a 1×SDS-sample buffer. The obtained solution was treated at 100° C. for 5 minutes. The protein amount was estimated using Bradford reagent (Bio-Rad, CA), and was then electrophoresed by 10% SDS-PAGE. After that, the protein was transferred onto polyvinylidene difluoride membranes (Millipore, MA), and using 5% dry milk in Tris-buffered saline (TBS) plus 0.1% Tween 20 as a blocking agent, anti-γH2AX (2F3, BioLegend, CA), anti-p53 (DO-1, Santa Cruz Biotechnology, CA), anti-PARP (Cell Signaling Technologies, MA), or anti-actin antibody (20-33, Sigma, MO) was added to lanes, and the protein was further treated with HRP-conjugated anti-mouse IgG or anti-rabbit IgG (Cell Signaling Technologies, MA). Before the treatment with a secondary antibody, the primary antibody was washed, as appropriate. Thereafter, the protein was washed with TBS plus 0.1% Tween 20, and it was then identified by […] chemiluminescence (ECL) (Amersham Biosciences, NJ).

[4] = test system: SW480 (KRAS-MUThomo); assay: Suppression of tumor growth in nude mice, SW480 transplanted; type: in vivo; details: nude mice with SW480 cells; for cancer tumor-inhibitory effect / tumor growth suppression: comparison KR12, KR13, seco CBI, FIG. 15
Description: The below-mentioned 3 types of PBS solutions containing each type of cells were subcutaneously transplanted into the femurs of nude mice (i.e., HT29 into 7 mice, LS180 into 7 mice, and SW480 into 6 mice), and thereafter, at a time point in which a tumor adhered to the living body of each mouse and the tumor volume became approximately 100 mm^3, a drug was prepared with a composition of 3.4 mmol KR12 (1.36 mM KR12 dissolved in 2.5 μL of DMSO and 197.5 μL of PBS), or of a DMSO/PBS control (2.5 μL of DMSO and 197.5 μL of PBS). The prepared drug was subjected to sonication for 10 minutes, and 200 μL of the drug was administered to each mouse via the caudal vein thereof. The body weight and the tumor size were measured once three days, and the size of the tumor was measured by the method of 0.52×L×W×D(1/6×π×L×W×D).
SW480 (KRAS-MUThomo): (transplanted in an amount of 5×10^6 cells/100 μl PBS into the subcutis of each mouse; a cell line having a […] KRAS gene codon 12 mutation G12V)
Using, as controls, PIP-indole-seco-CBI (KR13) not recognizing a codon 12 mutation and 8.4 mmol seco CBI (3.36 mM CBI dissolved in 2.5 μL of DMSO and 197.5 μL of PBS), instead of the DMSO/PBS control, an experiment was carried out by the same method as that of the above section 11.

[5] = test system: mutant KRAS genes and wild-type KRAS genes in PANC-1; assay: Colony analysis of KRAS transcripts, PANC-1; type: cell-based; details: for MUT (number of mutant gene colonies) / WT (number of wild-type gene colonies): PANC-1, Table 4

Structure (SMILES) | DNA fragmentation ([1]; 72-hour-treated groups) | DNA fragmentation ([1]; long-term treatment) | change in cell cycle [2] | change in cell cycle, Sub G1 stage (cell death) [2] | DNA damage marker γH2AX [3] | cleavage of the PARP protein [3] | induction of p53 [3] | tumor size ([4]; 3.4 mmol KR12 via the caudal vein, FIG. 14C) | size of the tumor ([4]; 2 months after the administration) | state of the tumor ([4]; 3 months after the administration) | cancer tumor-inhibitory effect / tumor growth suppression [4] | MUT (number of mutant gene colonies) [5] | WT (number of wild-type gene colonies) [5] | expression levels of the mutant KRAS genes relative to wild-type KRAS genes ([5]; PANC-1, control group mutant 3-fold higher than wild-type) | induction of DNA damage and cell death [3]
CC(=O)Nc1cn(C)c(C(=O)Nc2cc(C(=O)NCCC(=O)Nc3cn(C)c(C(=O)Nc4cn(C)c(C(=O)Nc5cc(C(=O)Nc6cn(C)c(C(=O)NCCCC(=O)Nc7cc(C(=O)Nc8cn(C)c(C(=O)NCCC(=O)Nc9cc(C(=O)Nc%10cc(C(=O)Nc%11ccc%12[nH]c(C(=O)N%13CC(CCl)c%14c%13cc(O)c%13ccccc%14%13)cc%12c%11)n(C)c%10)n(C)c9)n8)n(C)c7)n6)n(C)c5)n4)n3)n(C)c2)n1 (stereo not shown) [KR12] | DNA fragmentation was not observed | DNA fragmentation induced by cell death was observed | the LS180 cells at the S stage were increased | the cells at the Sub G1 stage were significantly increased | induced | the cleavage of the PARP protein was observed | induction of p53 was also observed | significantly reduced | significantly reduced | an extremely small and hard induration | significantly higher than in the case of administration of KR13 | 24 | 21 | decreased to the same levels of the wild-type KRAS genes | –
CC(=O)Nc1cn(C)c(C(=O)Nc2cn(C)c(C(=O)Nc3cc(C(=O)Nc4cn(C)c(C(=O)NCCC(=O)Nc5cc(C(=O)Nc6cn(C)c(C(=O)NCCCC(=O)Nc7cc(C(=O)Nc8cn(C)c(C(=O)Nc9cc(C(=O)NCCC(=O)Nc%10cc(C(=O)Nc%11ccc%12[nH]c(C(=O)N%13CC(CCl)c%14c%13cc(O)c%13ccccc%14%13)cc%12c%11)n(C)c%10)n(C)c9)n8)n(C)c7)n6)n(C)c5)n4)n(C)c3)n2)n1 (stereo not shown) [KR13] | DNA fragmentation was not observed | DNA fragmentation was not observed | the cells at the S phase and the G2M phase were slightly increased | an increase in the cell at the Sub G1 phase was not significant | – | – | – | – | – | – | impossible | 18 | 8 | – | significant induction of DNA damage and cell death was not observed

— US11185593B2, “Alkylating agent for alkylating target with driver oncogene mutation” (Chiba Prefecture, priority 2013, dated 2021)
